Key:
[1] = target: T1, MDM2 (Homo sapiens, UniProt Q00987); test: Inhibition test of MDM2-P53 (GST-MDM2, Biotin-P53, Anti-GST-Tb, SA-XL665); type: binding; conditions: for inhibitory effect on MDM2 compared with positive control compound HDM201: labels are Example numbers, the compounds with S-configuration are meant
T1 construct: made in house
In short: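 Compounds, serially diluted 5-fold (twelve concentrations), were shaken for 90 min at 25° C with a mix of GST-MDM2 (4 nM final), Biotin-P53, anti-GST-Tb and SA-XL665. Buffer: 1×PBS, 0.1% BSA, 5 mM DTT, 1 mM AEBSF; signal read on a microplate reader.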

[2] = tested on: human osteosarcoma cell line SJSA-1; test: Inhibition of proliferation of human osteosarcoma cell line SJSA-1 (DAPI staining, In Cell Analyzer); conditions: for inhibitory effect on human osteosarcoma cell line SJSA-1 compared with positive control compound HDM201: labels are Example numbers, the compounds with S-configuration are meant; for IC50: Homo sapiens, SJSA-1, 72 h, read-out: IC50 (nM), inhibitory activity on proliferation of human osteosarcoma cell line SJSA-1, SJSA-1, incubated 72 h
Description: 2.2 Experiment Preparation:
2.2.1 Preparation of a culture medium for human osteosarcoma cell line SJSA-1: RPMI1640+10% FBS+1% penicillin/streptomycin
2.2.2 Preparation of a test compound solution:
a. the test compound solution with a certain concentration was taken, and diluted with the culture medium to obtain a compound solution with a final concentration of 20 μM;
b. 200 μL of a culture medium containing 0.2% DMSO (dimethyl sulfoxide) was added into H2-H10 of a 96-well plate; 300 μl of the above solution was added into H1; and
c. 100 μL was taken out from well H1, added into H2, and mixed well; then 100 μl of the resultant solution was taken and added into H3, and dilution was carried out in sequence until H9 to obtain the 3-fold serial dilution of the test compound.
2.3 Experimental Process:
2.3.1 SJSA-1 cells were inoculated into a 96-well cell plate with black transparent bottom at 4000 cells/100 μl/well, and cultured overnight at 37° C.;
2.3.3 Fixation: the cell plate was taken out, the culture medium was removed, and 50 μL of 4% paraformaldehyde solution was added to each well to fix for 10 min;
2.3.4 50 μl of 0.1 M glycine was added to neutralize for 10 min;
2.3.5 Washing was performed with 1×PBS (phosphate buffer solution pH7.2) twice;
2.3.6 Permeabilization: 50 μL of 0.2% TritonX-100 (Triton) was added per well, and permeabilization was carried out at room temperature for 10 min;
2.3.7 Washing was performed with 1×PBS (phosphate buffer solution pH7.2) twice;
2.3.9 Washing was performed with 1×PBS (phosphate buffer solution pH7.2) for three times; and
2.3.10 Scanning and analysis were performed by In cell analyzer.
The inhibition rate of each compound at each concentration point was calculated according to the following formula, and curve fitting was performed by GraphPad Prism 6.0 software to obtain the IC50 value.

T1 sequence (Q00987 whole entry): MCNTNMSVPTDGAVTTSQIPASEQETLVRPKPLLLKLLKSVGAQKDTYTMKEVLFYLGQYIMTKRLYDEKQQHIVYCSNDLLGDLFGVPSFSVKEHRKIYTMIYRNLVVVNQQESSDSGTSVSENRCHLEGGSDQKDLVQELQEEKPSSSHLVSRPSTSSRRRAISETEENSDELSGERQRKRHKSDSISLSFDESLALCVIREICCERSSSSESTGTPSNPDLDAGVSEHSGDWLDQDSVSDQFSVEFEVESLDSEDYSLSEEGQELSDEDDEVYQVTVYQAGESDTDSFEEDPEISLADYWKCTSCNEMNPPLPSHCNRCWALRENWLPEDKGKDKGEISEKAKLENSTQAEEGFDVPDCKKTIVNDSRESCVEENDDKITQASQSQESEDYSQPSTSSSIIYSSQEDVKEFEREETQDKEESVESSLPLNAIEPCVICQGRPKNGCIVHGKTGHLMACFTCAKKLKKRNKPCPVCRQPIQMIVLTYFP

| SMILES | inhibitory effect on MDM2 compared with positive control compound HDM201 [1] | inhibitory effect on human osteosarcoma cell line SJSA-1 compared with positive control compound HDM201 [2] | IC50 [1] | IC50 [2] |
| --- | --- | --- | --- | --- |
| COc1ccc(-c2nc3c(n2C(C)C)C2(C(=O)Nc4cc(Cl)ccc42)N(c2cc(Cl)cnc2C)C3=O)c(OC)c1 (stereo not shown) [Example 61, 6-chloro-5′-(5-chloro-2-methylpyridin-3-yl)-2′-(2,4-dimethoxyphenyl)-3′-isopropyl-3′H-spiro[dihydroindole-3,4′-pyrrolo[3,4-d]imidazole]-2,6′(5′H)-dione] | better | better | – | – |
| COc1cc(OC(C)C)ncc1-c1nc2c(n1C(C)C)C1(C(=O)Nc3cc(Cl)ccc31)N(c1cc(Cl)ccc1C)C2=O (stereo not shown) [Example 69, 6-chloro-5′-(5-chloro-2-methylphenyl)-2′-(6-isopropoxy-4-methoxypyridin-3-yl)-3′-isopropyl-3′H-spiro[dihydroindole-3,4′-pyrrolo[3,4-d]imidazole]-2,6′(5′H)-dione] | better | better | – | – |
| CCOc1cc(OC)c(-c2nc3c(n2C(C)C)C2(C(=O)Nc4cc(Cl)ccc42)N(c2cc(Cl)ccc2C)C3=O)cn1 (stereo not shown) [Example 72, 6-chloro-5′-(5-chloro-2-methylphenyl)-2′-(6-ethoxy-4-methoxypyridin-3-yl)-3′-isopropyl-3′H-spiro[dihydroindole-3,4′-pyrrolo[3,4-d]imidazole]-2,6′(5′H)-dione] | better | better | – | – |
| COc1cc(N)c(C)cc1-c1nc2c(n1C(C)C)C1(C(=O)Nc3cc(Cl)ccc31)N(c1cc(Cl)ccc1C)C2=O (stereo not shown) [Example 74, 2′-(4-amino-2-methoxy-5-methylphenyl)-6-chloro-5′-(5-chloro-2-methylphenyl)-3′-isopropyl-3′H-spiro[dihydroindole-3,4′-pyrrolo[3,4-d]imidazole]-2,6′(5′H)-dione] | better | better | – | – |
| COc1cc(N)c(F)cc1-c1nc2c(n1C(C)C)C1(C(=O)Nc3cc(Cl)ccc31)N(c1cc(Cl)ccc1C)C2=O (stereo not shown) [Example 75, 2′-(4-amino-5-fluoro-2-methoxyphenyl)-6-chloro-5′-(5-chloro-2-methylphenyl)-3′-isopropyl-3′H-spiro[dihydroindole-3,4′-pyrrolo[3,4-d]imidazole]-2,6′(5′H)-dione] | better | better | – | – |
| COc1cc(N(C)C)c(F)cc1-c1nc2c(n1C(C)C)C1(C(=O)Nc3cc(Cl)ccc31)N(c1cc(Cl)ccc1C)C2=O (stereo not shown) [Example 78] | better | better | – | – |
| COc1nc(N(C)C)ncc1-c1nc2c(n1C(C)C)C1(C(=O)Nc3cc(Cl)ccc31)N(c1cc(Cl)ccc1C)C2=O (stereo not shown) [Example 82, 6-chloro-5′-(5-chloro-2-methylphenyl)-2′-(2-(dimethylamino)-4-methoxypyrimidin-5-yl)-3′-isopropyl-3′H-spiro[dihydroindole-3,4′-pyrrolo[3,4-d]imidazole]-2,6′(5′H)-dione] | better | better | – | – |
| COc1ccc(C(=O)O)cc1-c1nc2c(n1C(C)C)C1(C(=O)Nc3cc(Cl)ccc31)N(c1cc(Cl)ccc1C)C2=O (stereo not shown) [Example 84, 3-(6-chloro-5′-(5-chloro-2-methylphenyl)-3′-isopropyl-2,6′-dioxo-5′,6′-dihydro-3′H-spiro[dihydroindole-3,4′-pyrrolo[3,4-d]imidazole]-2′-yl)-4-methoxybenzoic acid] | – | – | 3.78 nM | 2610 nM |
| COc1cc(OC)c(-c2nc3c(n2C(C)C)C2(C(=O)Nc4cc(Cl)ccc42)N(c2cc(Cl)ccc2C)C3=O)cc1F (stereo not shown) [Example 92, 6-chloro-5′-(5-chloro-2-methylphenyl)-2′-(5-fluoro-2,4-dimethoxyphenyl)-3′-isopropyl-3′H-spiro[dihydroindole-3,4′-pyrrolo[3,4-d]imidazole]-2,6′(5′H)-dione] | better | better | – | – |
| CCOc1cc(OC)c(-c2nc3c(n2C(C)C)C2(C(=O)Nc4cc(Cl)ccc42)N(c2cc(Cl)cnc2C)C3=O)cn1 (stereo not shown) [Example 96, 6-chloro-5′-(5-chloro-2-methylpyridin-3-yl)-2′-(6-ethoxy-4-methoxypyridin-3-yl)-3′-isopropyl-3′H-spiro[dihydroindole-3,4′-pyrrolo[3,4-d]imidazole]-2,6′(5′H)-dione] | better | better | – | – |
| CCOc1cc(OC)c(-c2nc3c(n2C(C)C)C2(C(=O)Nc4cc(Cl)ccc42)N(c2cc(Cl)ccc2F)C3=O)cn1 (stereo not shown) [Example 98, 6-chloro-5′-(5-chloro-2-fluorophenyl)-2′-(6-ethoxy-4-methoxypyridin-3-yl)-3′-isopropyl-3′H-spiro[dihydroindole-3,4′-pyrrolo[3,4-d]imidazole]-2,6′(5′H)-dione] | better | better | – | – |
| CCOc1cc(OC)c(-c2nc3c(n2C(C)C)C2(C(=O)Nc4cc(Cl)ccc42)N(c2cccc(Cl)c2)C3=O)cn1 (stereo not shown) [Example 102, 6-chloro-5′-(3-chlorophenyl)-2′-(6-ethoxy-4-methoxypyridin-3-yl)-3′-isopropyl-3′H-spiro[dihydroindole-3,4′-pyrrolo[3,4-d]imidazole]-2,6′(5′H)-dione] | better | better | – | – |
| COc1cc(C2CC2)ncc1-c1nc2c(n1C(C)C)C1(C(=O)Nc3cc(Cl)ccc31)N(c1cc(Cl)ccc1C)C2=O (stereo not shown) [Example 103, 6-chloro-5′-(5-chloro-2-methylphenyl)-2′-(6-cyclopropyl-4-methoxypyridin-3-yl)-3′-isopropyl-3′H-spiro[dihydroindole-3,4′-pyrrolo[3,4-d]imidazole]-2,6′(5′H)-dione] | better | better | – | – |
| COc1cc(OC2CC2)ncc1-c1nc2c(n1C(C)C)C1(C(=O)Nc3cc(Cl)ccc31)N(c1cc(Cl)ccc1C)C2=O (stereo not shown) [Example 110, 6-chloro-5′-(5-chloro-2-methylphenyl)-2′-(6-cyclopropoxy-4-methoxypyridin-3-yl)-3′-isopropyl-3′H-spiro[dihydroindole-3,4′-pyrrolo[3,4-d]imidazole]-2,6′(5′H)-dione] | better | better | – | – |
| COc1cc(N(C)C)ncc1-c1nc2c(n1C(C)C)C1(C(=O)Nc3cc(Cl)ccc31)N(c1cccc(Cl)c1)C2=O (stereo not shown) [Example 113, 6-chloro-5′-(3-chlorophenyl)-2′-(6-(dimethylamino)-4-methoxypyridin-3-yl)-3′-isopropyl-3′H-spiro[dihydroindole-3,4′-pyrrolo[3,4-d]imidazole]-2,6′(5′H)-dione] | better | better | – | – |
| COc1cc(OC)c(-c2nc3c(n2C(C)C)C2(C(=O)Nc4cc(Cl)ccc42)N(c2cccc(Cl)c2)C3=O)cn1 (stereo not shown) [Example 115, 6-chloro-5′-(3-chlorophenyl)-2′-(4,6-dimethoxypyridin-3-yl)-3′-isopropyl-3′H-spiro[dihydroindole-3,4′-pyrrolo[3,4-d]imidazole]-2,6′(5′H)-dione] | better | better | – | – |
| CCc1cc(-c2nc3c(n2C(C)C)C2(C(=O)Nc4cc(Cl)ccc42)N(c2cc(Cl)ccc2C)C3=O)c(OC)cc1N(C)C (stereo not shown) [Example 125, 6-chloro-5′-(5-chloro-2-methylphenyl)-2′-(4-(dimethylamino)-5-ethyl-2-methoxyphenyl)-3′-isopropyl-3′H-spiro[dihydroindole-3,4′-pyrrolo[3,4-d]imidazole]-2,6′(5′H)-dione] | – | – | 20.8 nM | 60.3 nM |
| COc1nc(OC(C)C)ncc1-c1nc2c(n1C(C)C)C1(C(=O)Nc3cc(Cl)ccc31)N(c1cc(Cl)ccc1C)C2=O (stereo not shown) [Example 126, 6-chloro-5′-(5-chloro-2-methylphenyl)-2′-(2-isopropoxy-4-methoxypyrimidin-5-yl)-3′-isopropyl-3′H-spiro[dihydroindole-3,4′-pyrrolo[3,4-d]imidazole]-2,6′(5′H)-dione] | better | better | – | – |
| COc1cc(OC)c(-c2nc3c(n2C(C)C)C2(C(=O)Nc4cc(Cl)ccc42)N(c2cc(Cl)cnc2C)C3=O)cn1 (stereo not shown) [Example 131, 6-chloro-5′-(5-chloro-2-methylpyridin-3-yl)-2′-(4,6-dimethoxypyridin-3-yl)-3′-isopropyl-3′H-spiro[dihydroindole-3,4′-pyrrolo[3,4-d]imidazole]-2,6′(5′H)-dione] | better | better | – | – |
| COc1cc(OC(C)C)ncc1-c1nc2c(n1C(C)C)C1(C(=O)Nc3cc(Cl)ccc31)N(c1cc(Cl)cnc1C)C2=O (stereo not shown) [Example 137, 6-chloro-5′-(5-chloro-2-methylpyridin-3-yl)-2′-(6-isopropoxy-4-methoxypyridin-3-yl)-3′-isopropyl-3′H-spiro[dihydroindole-3,4′-pyrrolo[3,4-d]imidazole]-2,6′(5′H)-dione] | better | better | – | – |

Source: patent publication US11339171B2, “MDM2 inhibitors” (Gan & Lee Pharmaceuticals, priority 2017, dated 2022)
